“Also recorded” adds a separate entry of the source.
Key:
[1] = tested on: six to eight cultured tumor cell lines; assay: In vitro cytotoxicity against the panel of tumor lines (overall activity grouping); format: cell-based, human and/or animal; settings: for change in activity relative to Tx-38 (in words): structural modification of Tx-38; for anti-tumor activity (in words): summary over the tumor lines; for change in activity relative to Tx-37 (in words): structural modification of Tx-37; for activity group: grouped as determined by the majority of the results over all tumor lines
Protocol: (§1) Every dibenzofluorene derivative was tested, as will be described below, against six to eight cultured, tumor cell lines of human and/or animal origin, at least half of which were selected from the NCI panel of test tumors. In each experiment, Adriamycin (ADR) was used as a maximally positive control.
(§2) Data are IC50 values (MTT assay) reported as μg/ml for 72 hours continuous exposure to the drug. Drugs were prepared in DMSO:PEG300 (1:1). Further, dilutions were made in a cell culture medium with fetal bovine serum.
Additional tumor lines against which the drugs were tested in certain series included L1210 (leukemia), PC3 (prostate) and several others.
(§3) Compounds were evaluated for solubility characteristics in vehicles which would be appropriate for use in cell culture. The compounds were added to the cell lines under continuous culture for 72 hours. Inhibition of growth relative to control cell culture was determined by the MTT method at the end of 72 hours. This is a test of the relative ability of a compound to inhibit cell growth not survival. However, inhibition of growth may reflect cell death and/or cytostasis.
ADR invariably produced the described anti-tumor effect against all tumor lines at concentrations lower than 1 μg/ml of culture media. The effect of the Tx-compounds was divided into five activity groups as described below. In all cases, if activity against a single tumor line differed radically from that against all others, notation was made of this specificity but the agent was grouped as determined by the majority of the results.

[2] = tested on: P388/0 murine lymphatic leukemia; assay: In vitro cytotoxicity, MTT assay, 72 h continuous exposure; format: cell-based; settings: average over runs, value above 50 = 50% inhibition not achieved at 50 μg/ml
Protocol: as §1, §2, §3

[3] = tested on: HL-60 human promyelocytic leukemia; assay: as above; format: cell-based; settings: average over runs, value above 50 = 50% inhibition not achieved at 50 μg/ml
Protocol: as §1, §2, §3

[4] = tested on: MCF-7 human breast carcinoma; assay: as above; format: cell-based; settings: average over runs, value above 50 = 50% inhibition not achieved at 50 μg/ml
Protocol: as §1, §2, §3

BRO human melanoma = assay: as above; format: cell-based; settings: average over runs, value above 50 = 50% inhibition not achieved at 50 μg/ml
Protocol: as §1, §2, §3

[5] = tested on: OVCAR 3 human ovarian carcinoma; assay: as above; format: cell-based; settings: average over runs, value above 50 = 50% inhibition not achieved at 50 μg/ml
Protocol: as §1, §2, §3

[6] = tested on: HT-29 human colon adenocarcinoma; assay: as above; format: cell-based; settings: average over runs, value above 50 = 50% inhibition not achieved at 50 μg/ml
Protocol: as §1, §2, §3

Row | SMILES | change in activity relative to Tx-38 (in words) [1] | average IC50 P388/0 [2] [µg/mL] | average IC50 HL-60 [3] [µg/mL] | average IC50 MCF-7 [4] [µg/mL] | average IC50 BRO (BRO human melanoma) [µg/mL] | average IC50 OVCAR-3 [5] [µg/mL] | IC50 ([1]; Homo sapiens, all tumor lines, μg/ml of culture media, positive control, read-out: concentration producing the described anti-tumor effect against all tumor lines) [µg/mL] | anti-tumor activity (in words) [1] | average IC50 HT-29 [6] [µg/mL] | change in activity relative to Tx-37 (in words) [1] | activity group [1]
1 | O=C(CCC(=O)N1CCCCC1)Nc1cc2c(c3ccccc13)-c1ccc3ccccc3c1C2O (centres unmarked) [Tx-67] | greatly increased the activity | 9.2 | 5.6 | 8.9 | 14.7 | 8.8 | – | – | – | – | –
2 | O=C(CCC(=O)N1CCCCC1)Nc1ccc2c(c1)Cc1ccccc1-2 [Tx-69] | – | 41.5 | – | 28.9 | – | – | – | – | – | – | –
3 | COc1cccc2c1C(=O)c1c(O)c3c(c(O)c1C2=O)C[C@@](O)(C(=O)CO)C[C@@H]3O[C@H]1C[C@H](N)[C@H](O)[C@H](C)O1 [ADR, Adriamycin, reference compound] | – | – | – | – | – | – | < 1 | – | – | – | –
4 | O=C(CCC(=O)N1CCCCC1)Nc1cc2c(c3ccccc13)-c1ccc3ccccc3c1C2 [Tx-38] | – | 42.9 | 14.9 | 22.8 | 46.4 | 39.5 | – | no significant anti-tumor activity; also recorded: little or no activity | 34.4 | – | –
5 | CN1CCN(C(=O)CCC(=O)Nc2cc3c(c4ccccc24)-c2ccc4ccccc4c2C3=O)CC1 [Tx-50] | – | 3.7 | 4.0 | 18.1 | 11.2 | 6.6 | – | significant activities | 10.0 | slight diminution in activity | –
6 | O=C(CCC(=O)N1CCCCC1)Nc1cc2c(c3ccccc13)-c1ccc3ccccc3c1C2=O [Tx-51] | – | – | 32.0 | 27.0 | 47.2 | 16.2 | – | little or no activity | – | – | –
7 | CN1CCN(C(=O)C=CC(=O)Nc2cc3c(c4ccccc24)-c2ccc4ccccc4c2C3)CC1 [Tx-47] | – | 15.4 | 1.2 | 20.2 | 1.2 | 1.1 | – | – | 16.7 | reduced its activity significantly | GROUP C (These agents were effective against one-third to one-half of all tumor lines tested at levels less than 10 μg/ml)
8 | CN1CCN(C(=O)CCC(=O)Nc2cc3c(c4ccccc24)-c2ccc4ccccc4c2C3)CC1 [Tx-37, N-[11′-(13′H-Dibenzo[a,g]-fluorenyl)]-4-(4′N methyl-piperazinyl)-butane-1,4-dicarboxiamide] | – | 2.0 | 1.6 | 3.0 | 1.8 | 1.9 | – | consistent, highly positive effects; also recorded: most active compound; also recorded: significant activities | 1.9 | – | –
9 | O=C(C=CC(=O)N1CCCCC1)Nc1cc2c(c3ccccc13)-c1ccc3ccccc3c1C2 [Tx-48, N-[11′-13′H-Dibenzo[a,g]-fluorenyl]-4-(1′-piperidinyl)-but-2-ene-1,4-dicarboxiamide] | little or no change | – | 30.1 | 18.3 | 22.6 | 23.4 | – | – | – | – | –
10 | CN1CCN(C(=O)CCC(=O)Nc2cc3c(c4ccccc24)-c2ccc4ccccc4c2C3O)CC1 (centres unmarked) [Tx-66] | – | 2.1 | 2.0 | 5.9 | 6.0 | 4.2 | – | – | – | minor change in the activity | –
11 | CN1CCN(C(=O)CCC(=O)Nc2ccc3c(c2)Cc2ccccc2-3)CC1 [Tx-68, N-[2′-(9′H-fluorenyl)]-4-(4′N methyl-piperazinyl)-butane-1,4-dicarboxiamide] | – | – | – | 18.2 | – | 31.7 | – | – | – | – | GROUP E (These agents produced some anti-tumor effect at doses above 10 μg/ml but less than 20 μg/ml)
12 | CN1CCN(C(=O)CCC(=O)Nc2cc3c(c4ccccc24)-c2ccc4ccccc4c2C3)CC1.Cl [Tx-49, N-[11′-(13′H-Dibenzo[a,g]-fluorenyl)]-4-(4′N methyl-piperazinyl hydrochloride)-butane-1,4-dicarboxiamide] | – | 3.1 | 2.5 | 5.7 | 2.5 | 2.8 | – | – | 2.5 | minor change in the activity | –

Reference: patent US6479662B2, “Antitumor dibenzofluorene derivatives” (Board of Regents, The University of Texas System, priority 1998, dated 2002)
